ChEMBL document CHEMBL6127068, “Discovery of novel nitrofuran PROTAC-like compounds as dual inhibitors and degraders targeting STING” (Eur J Med Chem, 2024)
Active and inactive are the calls of the source. The rule behind the calls is not given here.

How the values were obtained:
[1] = target: T1, Protein cereblon/Stimulator of interferon genes protein (Homo sapiens, UniProt Q96SW2+Q86WV6); test: PROTAC activity at CRBN/STING in human THP-1 cells assessed as induction of STING degradation at 10 uM pretreated with proteasome inhibitor, MG132 for 1 hr followed by incubation with compound for 24 hrs by western blot analysis; format: cell-based
[2] = target: T1, Protein cereblon/Stimulator of interferon genes protein; test: PROTAC activity at CRBN/STING in human THP-1 cells assessed as induction of STING degradation at 10 uM incubated for 24 hrs by western blot analysis; format: cell-based
[3] = target: T2, von Hippel-Lindau disease tumor suppressor/Stimulator of interferon genes protein (Homo sapiens, UniProt P40337+Q86WV6); test: PROTAC activity at VHL/STING (unknown origin) assessed as induction of protein degradation; format: protein assay
Target sequence in this assay (P40337 whole entry): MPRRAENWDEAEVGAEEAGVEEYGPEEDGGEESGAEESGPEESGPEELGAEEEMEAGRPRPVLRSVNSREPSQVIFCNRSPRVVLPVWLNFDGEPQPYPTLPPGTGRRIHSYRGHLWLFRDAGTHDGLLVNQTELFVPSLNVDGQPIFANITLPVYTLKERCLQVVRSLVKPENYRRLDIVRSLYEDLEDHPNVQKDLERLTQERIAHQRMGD
Target sequence in this assay (Q86WV6 whole entry): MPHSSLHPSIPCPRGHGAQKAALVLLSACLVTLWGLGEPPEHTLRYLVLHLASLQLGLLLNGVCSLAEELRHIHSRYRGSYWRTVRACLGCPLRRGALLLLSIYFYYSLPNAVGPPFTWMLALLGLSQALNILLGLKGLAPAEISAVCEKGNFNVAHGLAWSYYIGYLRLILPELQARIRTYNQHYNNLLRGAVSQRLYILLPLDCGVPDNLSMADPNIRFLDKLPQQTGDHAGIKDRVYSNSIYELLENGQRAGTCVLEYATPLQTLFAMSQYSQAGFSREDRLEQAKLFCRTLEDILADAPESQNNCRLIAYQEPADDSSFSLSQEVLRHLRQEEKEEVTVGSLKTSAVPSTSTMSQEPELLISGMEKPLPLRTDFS

[4] = target: T2, von Hippel-Lindau disease tumor suppressor/Stimulator of interferon genes protein; test: PROTAC activity at VHL/STING (unknown origin) assessed as induction of protein degradation relative to control; format: protein assay
Target sequence in this assay (P40337 whole entry, looked up): as the sequence (P40337 whole entry) above
Target sequence in this assay (Q86WV6 whole entry, looked up): as the sequence (Q86WV6 whole entry) above

[5] = Cytotoxicity against HUVEC assessed as reduction in cell viability at 3.3 uM incubated for 48 hrs by MTT assay; format: toxicity, cell-based; settings: human, HUVEC cells, read-out: INH
[6] = Cytotoxicity against HEK293T cells assessed as reduction in cell viability at 3.3 uM incubated for 48 hrs by MTT assay; format: toxicity, cell-based, HEK-293T; settings: human, read-out: INH

T1 sequence (Q86WV6 whole entry, looked up): as the sequence (Q86WV6 whole entry) above
T1 sequence (Q96SW2 whole entry, looked up): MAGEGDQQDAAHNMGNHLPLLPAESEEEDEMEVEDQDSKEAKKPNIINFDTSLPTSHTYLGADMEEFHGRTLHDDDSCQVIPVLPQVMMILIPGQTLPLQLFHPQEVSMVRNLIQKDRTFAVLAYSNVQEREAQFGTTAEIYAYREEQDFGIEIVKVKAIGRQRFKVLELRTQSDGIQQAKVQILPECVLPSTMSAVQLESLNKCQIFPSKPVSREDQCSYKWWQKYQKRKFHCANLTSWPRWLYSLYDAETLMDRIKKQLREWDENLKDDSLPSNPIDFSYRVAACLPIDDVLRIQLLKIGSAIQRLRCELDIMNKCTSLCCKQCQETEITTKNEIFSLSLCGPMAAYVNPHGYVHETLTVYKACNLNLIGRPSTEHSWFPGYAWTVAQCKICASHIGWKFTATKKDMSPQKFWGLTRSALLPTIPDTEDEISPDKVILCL

| Activity [2] | Structure (SMILES) | other results |
| --- | --- | --- |
|  | CN1C(=O)CCC(N2C(=O)c3cccc(OCc4cn(CCCCCC(=O)OCCc5ccc(NC(=O)c6ccc([N+](=O)[O-])o6)cc5)nn4)c3C2=O)C1=O (stereo not drawn) | Activity [1]: Active |
| Active | O=C1CCC(N2C(=O)c3cccc(OCc4cn(CCCC(=O)OCc5ccc(NC(=O)c6ccc([N+](=O)[O-])o6)cc5)nn4)c3C2=O)C(=O)N1 (stereo not drawn) |  |
|  | Cc1ncsc1-c1ccc([C@H](C)NC(=O)[C@@H]2C[C@@H](O)CN2C(=O)[C@@H](NC(=O)CCC(=O)NCCCNC(=O)c2cccc(S(=O)(=O)n3cc(C(=O)NCCCCCC(=O)Oc4ccc(NC(=O)c5ccc(-c6ccccc6)cc5)cc4NS(=O)(=O)c4ccc(F)cc4)ccc3=O)c2)C(C)(C)C)cc1 | DC50 [3]: 0.53 µM; Activity [4]: 56.6% |
| Active | O=C1CCC(N2C(=O)c3cccc(OCc4cn(CC(=O)OCc5ccc(NC(=O)c6ccc([N+](=O)[O-])o6)cc5)nn4)c3C2=O)C(=O)N1 (stereo not drawn) |  |
| Active | O=C1CCC(N2C(=O)c3cccc(OCc4cn(CCCCCC(=O)OCc5ccc(NC(=O)c6ccc([N+](=O)[O-])o6)cc5)nn4)c3C2=O)C(=O)N1 (stereo not drawn) |  |
| 71% | O=C1CCC(N2C(=O)c3cccc(OC(=O)CCCc4cn(CCCCCC(=O)Oc5ccc(NC(=O)c6ccc([N+](=O)[O-])o6)cc5)nn4)c3C2=O)C(=O)N1 (stereo not drawn) |  |
| inactive | O=C1CCC(N2C(=O)c3cccc(OCc4cn(CCCCCC(=O)Oc5ccc(NC(=O)c6ccc([N+](=O)[O-])o6)cc5)nn4)c3C2=O)C(=O)N1 (stereo not drawn) |  |
| 76% | O=C1CCC(N2C(=O)c3ccc(OCc4cn(CCCC(=O)OCCc5ccc(NC(=O)c6ccc([N+](=O)[O-])o6)cc5)nn4)cc3C2=O)C(=O)N1 (stereo not drawn) |  |
|  | CCCCc1ccc(NC(=O)c2ccc([N+](=O)[O-])o2)cc1 | cytotoxicity at 48 h, 3.3 µM [5]: 68.2%; cytotoxicity at 48 h, 3.3 µM [6]: 80.1% |
| Active | O=C1CCC(N2C(=O)c3cccc(OCc4cn(CCCC(=O)Oc5ccc(NC(=O)c6ccc([N+](=O)[O-])o6)cc5)nn4)c3C2=O)C(=O)N1 (stereo not drawn) |  |
| Active | O=C1CCC(N2C(=O)c3ccc(OCc4cn(CC(=O)OCCc5ccc(NC(=O)c6ccc([N+](=O)[O-])o6)cc5)nn4)cc3C2=O)C(=O)N1 (stereo not drawn) |  |
